Reference: ChEMBL document CHEMBL5620398, “Membrane-active substituted triazines as antibacterial agents against Staphylococcus aureus with potential for low drug resistance and broad activity” (Eur J Med Chem, 2023)
Values after ≈ are worked out from the molar mass of the structure shown. Active and inactive are the calls of the source. The calls are words filed in the database; no cut-off is given here.

Columns and labels:
[1] = tested on: Staphylococcus aureus; assay: Bactericidal activity against Staphylococcus aureus assessed as decrease in bacterial absorbance at 1/2XMIC measured after 2 hrs by time-kill analysis; format: functional, organism-based
[2] = tested on: Calf thymus DNA; assay: Binding affinity to calf thymus DNA by Benesi-Hildebrand equation based analysis; format: nucleic-acid assay; conditions: Bos taurus
[3] = tested on: HEK293; assay: Cytotoxicity against human HEK293 cells at 1 uM by MTT assay; format: toxicity, cell-based; conditions: hek293, 1 µM
[4] = tested on: Enterococcus faecalis; assay: Antibacterial activity against Enterococcus faecalis assessed as inhibition of bacterial growth by two-fold serial broth dilution method; format: functional
[5] = tested on: Staphylococcus aureus; assay: Antibacterial activity against Staphylococcus aureus assessed as inhibition of bacterial growth measured after 11 passages; format: functional, organism-based
[6] = molecular target: T1, Albumin (Homo sapiens, UniProt P02768); assay: Binding affinity to human serum albumin assessed as change in free energy at 318K by Van't Hoff plot analysis; format: ADME; conditions: isolated protein
[7] = tested on: Salmonella enterica; assay: Antibacterial activity against Salmonella enterica assessed as inhibition of bacterial growth by two-fold serial broth dilution method; format: functional
[8] = tested on: Staphylococcus aureus; assay: Bactericidal activity against Staphylococcus aureus assessed as bacterial killing; format: functional
[9] = tested on: Listeria; assay: Antibacterial activity against Listeria sps. assessed as inhibition of bacterial growth by two-fold serial broth dilution method; format: functional
[10] = tested on: Calf thymus DNA; assay: Binding affinity to calf thymus DNA assessed as DNA intercalation by measuring increase in DNA melting temperature by thermal denaturation based analysis; format: nucleic-acid assay; conditions: Bos taurus
[11] = tested on: Staphylococcus aureus; assay: Anti-biofilm activity against Staphylococcus aureus assessed as inhibition of biofilm formation at 1/2XMIC by crystal violet assay; format: functional
[12] = tested on: Enterococcus faecalis; assay: Ratio of MBC to MIC for Enterococcus faecalis; format: functional
[13] = tested on: Acinetobacter calcoaceticus; assay: Antibacterial activity against Acinetobacter calcoaceticus assessed as inhibition of bacterial growth by two-fold serial broth dilution method; format: functional
[14] = tested on: Cell membrane; assay: Induction of Inner membrane disruption in Staphylococcus aureus assessed as increase in fluorescence intensity at MIC to 4XMIC measured for 5 to 30 mins by EtBr dye based fluorescence analysis; format: cell membranes; conditions: time 5-30 min, TDE = time-dependent effect
[15] = molecular target: T1, Albumin; assay: Binding affinity to human serum albumin assessed as change in enthalpy by Van't Hoff plot analysis; format: ADME; conditions: isolated protein
[16] = molecular target: T1, Albumin; assay: Binding affinity to human serum albumin assessed as binding constant at 318K by fluorescence based analysis; format: ADME; conditions: isolated protein
[17] = molecular target: T1, Albumin; assay: Binding affinity to human serum albumin assessed as quenching in emission band at 350 nm at 0 to 35 uM at 298 to 318K by fluorescence based analysis; format: ADME; conditions: isolated protein, dose 0-35 µM
[18] = molecular target: T1, Albumin; assay: Binding affinity to human serum albumin assessed as Stem-Volmer quenching constant at 298K by fluorescence based analysis; format: ADME; conditions: isolated protein
[19] = tested on: Staphylococcus aureus; assay: Antibacterial activity against Staphylococcus aureus assessed as inhibition of bacterial growth by two-fold serial broth dilution method; format: functional
[20] = molecular target: T1, Albumin; assay: Binding affinity to human serum albumin assessed as binding constant at 308K by fluorescence based analysis; format: ADME; conditions: isolated protein
[21] = molecular target: T1, Albumin; assay: Binding affinity to human serum albumin assessed as dynamic quenching by measuring decrease in decay time of HSA at 0 to 21 uM by time-resolved fluorescence analysis; format: ADME; conditions: isolated protein, dose 0-21 µM
[22] = tested on: Serratia marcescens; assay: Antibacterial activity against Serratia marcescens assessed as inhibition of bacterial growth by two-fold serial broth dilution method; format: functional
[23] = tested on: Cell membrane; assay: Induction of cell membrane damage in Staphylococcus aureus assessed as loss of bacterial metabolic activity at MIC to 8XMIC by Alamar blue dye based fluorescence analysis; format: cell membranes
[24] = tested on: HEK293; assay: Cytotoxicity against human HEK293 cells at 10 uM by MTT assay; format: toxicity, cell-based; conditions: hek293, 10 µM
[25] = tested on: Calf thymus DNA; assay: Binding affinity to calf thymus DNA assessed as binding constant by fluorescence based analysis; format: nucleic-acid assay; conditions: Bos taurus
[26] = molecular target: T1, Albumin; assay: Binding affinity to human serum albumin assessed as hyperchromic shift at 280 nm at 0 to 18 uM by UV-Vis absorption spectroscopic analysis; format: ADME; conditions: isolated protein, dose 0-18 µM
[27] = tested on: Cell membrane; assay: Induction of Outer membrane disruption in Staphylococcus aureus assessed as […] in fluorescence intensity at MIC to 4X MIC by NPN dye based fluorescence analysis
[28] = molecular target: T1, Albumin; assay: Binding affinity to human serum albumin assessed as Stem-Volmer quenching constant at 318K by fluorescence based analysis; format: ADME; conditions: isolated protein
[29] = molecular target: T1, Albumin; assay: Binding affinity to human serum albumin assessed as Stem-Volmer quenching constant at 308K by fluorescence based analysis; format: ADME; conditions: isolated protein
[30] = tested on: Cell membrane; assay: Induction of cell membrane damage in Staphylococcus aureus assessed as broken cell membrane at 2XMIC by SEM analysis; format: cell membranes
[31] = tested on: Bacillus subtilis; assay: Antibacterial activity against Bacillus subtilis assessed as inhibition of bacterial growth by two-fold serial broth dilution method; format: functional
[32] = tested on: HEK293; assay: Cytotoxicity against human HEK293 cells at 0.01 uM by MTT assay; format: toxicity, cell-based; conditions: hek293, 0.01 µM
[33] = tested on: Staphylococcus aureus; assay: Anti-biofilm activity against Staphylococcus aureus assessed as inhibition of biofilm formation at 1/8XMIC by crystal violet assay; format: functional
[34] = molecular target: T1, Albumin; assay: Binding affinity to human serum albumin assessed as binding constant by Benesi-Hildebrand equation based analysis; format: ADME; conditions: isolated protein
[35] = tested on: Enterococcus faecalis; assay: Bacteriostatic activity against Enterococcus faecalis assessed as inhibition of bacterial growth; format: functional
[36] = tested on: Calf thymus DNA; assay: Binding affinity to calf thymus DNA assessed as quenching constant by fluorescence based analysis; format: nucleic-acid assay; conditions: Bos taurus
[37] = tested on: HEK293; assay: Cytotoxicity against human HEK293 cells at 0.1 uM by MTT assay; format: toxicity, cell-based; conditions: hek293, 0.1 µM
[38] = molecular target: T1, Albumin; assay: Binding affinity to human serum albumin assessed as change in free energy at 298K by Van't Hoff plot analysis; format: ADME; conditions: isolated protein
[39] = tested on: Staphylococcus aureus; assay: Bactericidal activity against Staphylococcus aureus assessed as decrease in bacterial absorbance at MIC measured after 1 hr by time-kill analysis; format: functional, organism-based
[40] = molecular target: T1, Albumin; assay: Binding affinity to human serum albumin assessed as change in entropy by Van't Hoff plot analysis; format: ADME; conditions: isolated protein
[41] = molecular target: T1, Albumin; assay: Binding affinity to human serum albumin assessed as change in free energy at 308K by Van't Hoff plot analysis; format: ADME; conditions: isolated protein
[42] = tested on: Calf thymus DNA; assay: Binding affinity to calf thymus DNA assessed as DNA intercalation by measuring quenching in emission band at 601 nm at 0 to 90 uM by ethidium bromide competitive displacement assay; format: nucleic-acid assay; conditions: Bos taurus; dose 0-90 µM
[43] = molecular target: T1, Albumin; assay: Binding affinity to human serum albumin assessed as quenching constant at 298K by fluorescence based analysis; format: ADME; conditions: isolated protein
[44] = tested on: Staphylococcus aureus; assay: Ratio of MBC to MIC for Staphylococcus aureus; format: functional
[45] = tested on: Staphylococcus aureus; assay: Anti-biofilm activity against Staphylococcus aureus assessed as inhibition of biofilm formation at MIC by crystal violet assay; format: functional
[46] = tested on: Staphylococcus aureus; assay: Anti-biofilm activity against Staphylococcus aureus assessed as inhibition of biofilm formation at 1/16XMIC by crystal violet assay; format: functional
[47] = tested on: Staphylococcus aureus; assay: Bactericidal activity against Staphylococcus aureus assessed as inhibition of bacterial growth at 1/4XMIC measured for 3 hrs by time-kill analysis; format: functional, organism-based
[48] = molecular target: T1, Albumin; assay: Binding affinity to human serum albumin assessed as binding constant at 298K by fluorescence based analysis; format: ADME; conditions: isolated protein
[49] = tested on: Cell membrane; assay: Induction of cell membrane damage in Staphylococcus aureus assessed as increase in leaked protein content at MIC to 8XMIC; format: cell membranes
[50] = tested on: Cell membrane; assay: Induction of Inner membrane disruption in Staphylococcus aureus assessed as increase in fluorescence intensity at MIC to 4XMIC by EtBr dye based fluorescence analysis; format: cell membranes
[51] = tested on: Calf thymus DNA; assay: Binding affinity to calf thymus DNA assessed as hypochromic shift in absorption band at 344 nm at 5 uM by UV-Vis absorption spectroscopy; format: nucleic-acid assay; conditions: Bos taurus
[52] = tested on: Escherichia coli; assay: Antibacterial activity against Escherichia coli assessed as inhibition of bacterial growth by two-fold serial broth dilution method; format: functional
[53] = tested on: Calf thymus DNA; assay: Binding affinity to calf thymus DNA assessed as Stern-Volmer quenching constant by fluorescence based analysis; format: nucleic-acid assay; conditions: Bos taurus
[54] = molecular target: T1, Albumin; assay: Binding affinity to human serum albumin assessed as increase in compound corresponding new band formation at 344 nm at 0 to 18 uM by UV-Vis absorption spectroscopic analysis; format: ADME; conditions: isolated protein, dose 0-18 µM
[55] = tested on: Cell membrane; assay: Induction of cell membrane damage in Staphylococcus aureus assessed as corrugation with leakage of cellular contents at 2XMIC by SEM analysis; format: cell membranes
[56] = tested on: HEK293; assay: Cytotoxicity against human HEK293 cells at 100 uM by MTT assay; format: toxicity, cell-based; conditions: hek293, 100 µM
[57] = tested on: Cell membrane; assay: Induction of Outer membrane disruption in Staphylococcus aureus assessed as […] in fluorescence intensity at MIC to 4X MIC measured for 5 to 30 mins by NPN dye based fluorescence analysis; conditions: time 5-30 min, TDE = time-dependent effect

T1 sequence (P02768 whole entry): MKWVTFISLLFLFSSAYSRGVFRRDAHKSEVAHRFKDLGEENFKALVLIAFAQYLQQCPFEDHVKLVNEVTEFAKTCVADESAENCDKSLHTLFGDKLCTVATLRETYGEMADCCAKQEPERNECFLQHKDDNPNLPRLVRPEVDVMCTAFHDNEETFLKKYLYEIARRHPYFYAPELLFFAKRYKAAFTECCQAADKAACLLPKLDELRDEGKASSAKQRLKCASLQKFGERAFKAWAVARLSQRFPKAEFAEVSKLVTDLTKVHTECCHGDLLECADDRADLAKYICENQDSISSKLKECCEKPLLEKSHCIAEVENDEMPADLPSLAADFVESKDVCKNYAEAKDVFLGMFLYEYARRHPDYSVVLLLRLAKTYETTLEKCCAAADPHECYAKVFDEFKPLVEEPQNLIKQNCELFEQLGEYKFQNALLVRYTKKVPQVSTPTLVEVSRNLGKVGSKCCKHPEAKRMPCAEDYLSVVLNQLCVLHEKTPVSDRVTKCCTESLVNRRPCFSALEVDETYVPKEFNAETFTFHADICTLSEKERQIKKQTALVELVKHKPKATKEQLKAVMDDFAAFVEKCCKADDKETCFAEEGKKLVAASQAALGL

Structure (SMILES): O=C1c2cccc3cccc(c23)C(=O)N1Nc1nc(NCc2ccccc2)nc(N2CCOCC2)n1
- Activity [1]: Active
- Kb [2]: 5.99 10^4/M
- Activity [3]: 11.8%
- MIC [4]: 0.003 µg/mL (≈ 0.00623 µM)
- Activity [5]: Active
- deltaG [6]: -1.61 kcal/mol
- MIC [7]: 200 µg/mL (≈ 415 µM)
- MBC [8]: 3.25 µg/mL (≈ 6.75 µM)
- MIC [9]: 6.25 µg/mL (≈ 13 µM)
- ΔTm [10]: 12.8 °C
- inhibition (INH) [11]: 30%
- Ratio [12]: >=32
- MIC [13]: 200 µg/mL (≈ 415 µM)
- Activity [14]: Tde
- deltaH [15]: -2.06 kcal/mol
- Kb [16]: 4.41 10^4/M
- Activity [17]: Active
- KSV [18]: 1.63 10^5/M
- MIC [19]: 1.56 µg/mL (≈ 3.24 µM)
- Kb [20]: 6.61 10^4/M
- Activity [21]: Active
- MIC [22]: 100 µg/mL (≈ 208 µM)
- Activity [23]: Active
- Activity [24]: 10.5%
- Kb [25]: 8.26 10^4/M
- Activity [26]: Active
- Activity [27]: Dose-Dependent Effect
- KSV [28]: 1.13 10^5/M
- KSV [29]: 1.18 10^5/M
- Activity [30]: Active
- MIC [31]: 3.12 µg/mL (≈ 6.49 µM)
- Activity [32]: 13.4%
- inhibition (INH) [33]: 10%
- Kb [34]: 1.32 10^5/M
- MBC [35]: 0.19 µg/mL (≈ 0.395 µM)
- Kq [36]: 1.22 10^12/M/s
- Activity [37]: 12.2%
- deltaG [38]: -1.64 kcal/mol
- Activity [39]: Active
- deltaS [40]: -5.88 J/mol.K
- deltaG [41]: -1.62 kcal/mol
- Activity [42]: Active
- Kq [43]: 1.63 10^13/M
- Ratio [44]: 2
- inhibition (INH) [45]: 60%
- inhibition (INH) [46]: 5%
- Activity [47]: Active
- Kb [48]: 11.01 10^4/M
- Activity [49]: Active
- Activity [50]: Dose-Dependent Effect
- Activity [51]: Active
- MIC [52]: 100 µg/mL (≈ 208 µM)
- KSV [53]: 1.22 10^4/M
- Activity [54]: Active
- Activity [55]: Active
- Activity [56]: 9.01%
- Activity [57]: Tde
